Measurements taken from patent EP0598515A1, “Method for herbicidal activity-enhancing, activity-enhanced herbicidal composition and activity-enhancing composition” (ISHIHARA SANGYO KAISHA LTD., priority 1992, dated 1994).
Several values for one entry are separate records, joined by “and”; a condition that tells them apart may be missing. Identical values can stand only once. Like-named read-outs stand apart in the source and are kept apart here.

How the values were obtained:
Format in all cases: in vivo
[1] = tested on: Crabgrass (Digitaria sanguinalis L.); test: Test Example 7: pot test, Example 8 suspension concentrate with Frigate; settings: 20 days after treatment, duplicate; for inhibition at 5 g/ha / inhibition at 10 g/ha / inhibition at 20 g/ha / inhibition at 40 g/ha: Digitaria sanguinalis, 480 h, read-out: Growth Inhibition (%) of Crabgrass; for inhibition at 20 g/ha: Compound A 20 g/ha; for inhibition at 40 g/ha: Compound A 40 g/ha
Procedure: Crabgrass (Digitaria sanguinalis L.) seeds were sown in 1/1,000,000-hectare pots filled with upland soil and arranged in a duplicate system. When the crabgrass plants grew to a 3- to 3.3-leaf stage, the oil-based suspension concentrate obtained in Example 8 was diluted with 500 liters/hectare of water containing a predetermined amount of Frigate and was applied foliarly to the plants with a small spray gun.
Twenty days after treatment, the growth inhibition of plants was evaluated with visual observation in the same manner as in Teat Example 1 and are shown in Table 7.

[2] = tested on: Crabgrass (Digitaria sanginalis L.); test: Test Example 11: pot test, Example 8 suspension concentrate with kinds of EFAS; settings: EFAS: No addition, 23 days after treatment, duplicate
Procedure: Crabgrass (Digitaria sanginalis L.) seeds were sown in 1/1,000,000-hectare pots filled with upland soil and arranged in a duplicate system. When the crabgrass plants grew to a 4-leaf stage, the oil-based suspension concentrate obtained in Example 8 was diluted with 200 liters/hectare of water containing a predetermined amount of an ethoxylated fatty amine type surfactant (EFAS) and was applied foliarly to the plants with a small spray gun.
Twenty three days after treatment, the growth inhibition of plants was evaluated with visual observation in the same manner as in Test Example 1 and are shown in Table 11.

[3] = tested on: Common lambsquarters (Chenopodium album L.); test: Test Example 13: field plot test, growth inhibition; settings: 648 h, Example 8 suspension concentrate, 27 days after treatment, field plots, read-out: Growth Inhibition (%) CA; for inhibition at 30 g/ha: Compound A 30 g/ha; for inhibition at 40 g/ha: Compound A 40 g/ha
Excerpt: (§1) In field plots of 4 m² (1 m × 4 m) unit arranged in a duplicate system, seeds of corn, crabgrass (Digitaria sanguinalis L.) common lambsquarters (Chenopodium album L.), slender amaranth (Amaranthus viridis L.), velvetleaf (Abutilon theophrasti MEDIC.) and common cocklebur (Xanthium strumarium L.) were sown and grown. Also, green foxtail (Setaria viridis L.) and barnyardgrass (Echinochloa crus-galli L.) were allowed to grow spontaneously. When the plants grew to certain stages (corn: 4.2 to 6.0-leaf stage, crabgrass: 3.2 to 5.0-leaf stage, common lambsquarters: 3.0 to 6.0-leaf stage, slender amaranth: 2.0 to 5.0-leaf stage, velvetleaf: 1.5 to 4.0-leaf stage, common cocklebur: cotyledonal to 3.5-leaf stage, green foxtail: 3.0 to 5.0-leaf stage and barnyardgrass: 3.0 to 5.0-leaf stage), the oil-based suspension concentrate obtained in Example 8 was diluted with 200 liters/hectare of water containing a predetermined amount of Frigate and was applied foliarly to the plants with a small spray gun.
(§2) Twenty seven days after treatment, the growth inhibition of plants except for corn plants was evaluated with visual observation in the same manner as in Test Example 1 and are shown in Table 13.

[4] = tested on: Crabgrass (Digitaria sanguinalis L.); test: as above; settings: 648 h, Example 8 suspension concentrate, 27 days after treatment, field plots, read-out: Growth Inhibition (%) DS; for inhibition at 30 g/ha: Compound A 30 g/ha; for inhibition at 40 g/ha: Compound A 40 g/ha
Excerpt: as §1, §2

[5] = tested on: Velvetleaf (Abutilon theophrasti MEDIC.); test: as above; settings: 648 h, Example 8 suspension concentrate, 27 days after treatment, field plots; for inhibition at 30 g/ha: Compound A 30 g/ha; for inhibition at 40 g/ha: Compound A 40 g/ha
Excerpt: as §1, §2

[6] = tested on: common cocklebur (Xanthium strumarium L.); test: as above; settings: Example 8 suspension concentrate, 27 days after treatment, field plots
Excerpt: as §1, §2

[7] = tested on: green foxtail (Setaria viridis L.); test: as above; settings: Example 8 suspension concentrate, 27 days after treatment, field plots; for inhibition at 40 g/ha: Compound A 40 g/ha
Excerpt: as §1, §2

[8] = tested on: slender amaranth (Amaranthus viridis L.); test: as above; settings: 648 h, Example 8 suspension concentrate, 27 days after treatment, field plots, read-out: Growth Inhibition (%) AV; for inhibition at 30 g/ha: Compound A 30 g/ha; for inhibition at 40 g/ha: Compound A 40 g/ha
Excerpt: as §1, §2

total evaluation = test: Test Example 13: field plot test, total evaluation of growth inhibition; settings: Example 8 suspension concentrate, 27 days after treatment, field plots; for inhibition at 40 g/ha: Compound A 40 g/ha
Excerpt: as §1, §2

[9] = Frigate 0.125 % by volume, Compound A 5 g/ha
[10] = Frigate: No addition, Compound A 50 g/ha
[11] = Frigate 0.2 % by volume, Compound A 20 g/ha
[12] = Frigate: No addition, Compound A 30 g/ha

COc1cc(OC)nc(NC(=O)NS(=O)(=O)c2ncccc2C(=O)N(C)C)n1 [Compound A, N-[(4,6-dimethoxypyrimidin-2-yl)aminocarbonyl]-3-dimethylaminocarbonyl-2-pyridinesulfonamide]
75%: inhibition at 5 g/ha ([1]; Frigate 0.5 % by volume, Compound A 5 g/ha) | inhibition at 30 g/ha ([4]; Frigate: No addition) | inhibition at 40 g/ha ([5]; Frigate 0.2 % by volume) | inhibition at 40 g/ha ([6]; Xanthium strumarium, 648 h, Frigate: No addition, Compound A 40 g/ha, read-out: Growth Inhibition (%) XS) | inhibition at 40 g/ha ([7]; Setaria viridis, 648 h, Frigate 0.2 % by volume, read-out: Growth Inhibition (%) SV) | inhibition at 30 g/ha (total evaluation; 648 h, Frigate 0.1 % by volume, Compound A 30 g/ha, read-out: Growth Inhibition (%) TE) | inhibition at 50 g/ha (total evaluation; 648 h, Frigate: No addition, Compound A 50 g/ha, read-out: Growth Inhibition (%) TE)
55%: Growth Inhibition (%) of Crabgrass ([2]; Compound A 10 g/ha) | inhibition at 20 g/ha [5, 11] | inhibition at 40 g/ha ([5]; Frigate: No addition)
95%: inhibition at 10 g/ha ([1]; Frigate 0.25 % by volume, Compound A 10 g/ha) | inhibition at 10 g/ha ([1]; Frigate 0.5 % by volume, Compound A 10 g/ha) | inhibition at 40 g/ha ([4]; Frigate 0.1 % by volume) | inhibition at 30 g/ha ([8]; Frigate 0.1 % by volume) | inhibition at 40 g/ha ([8]; Frigate 0.2 % by volume) | inhibition at 40 g/ha ([8]; Frigate: No addition) | inhibition at 50 g/ha [8, 10]
100%: inhibition at 40 g/ha ([1]; Frigate 0.125 % by volume) | inhibition at 20 g/ha ([1]; Frigate 0.25 % by volume) | inhibition at 40 g/ha ([1]; Frigate 0.25 % by volume) | inhibition at 20 g/ha ([1]; Frigate 0.5 % by volume)
85%: inhibition at 10 g/ha ([1]; Frigate 0.125 % by volume, Compound A 10 g/ha) | inhibition at 40 g/ha ([1]; Frigate: No addition) | inhibition at 30 g/ha ([3]; Frigate 0.2 % by volume) | inhibition at 30 g/ha ([4]; Frigate 0.1 % by volume) | inhibition at 20 g/ha [4, 11] | inhibition at 30 g/ha ([4]; Frigate 0.2 % by volume) | inhibition at 50 g/ha [4, 10] | inhibition at 30 g/ha ([6]; Xanthium strumarium, 648 h, Frigate 0.2 % by volume, Compound A 30 g/ha, read-out: Growth Inhibition (%) XS) | inhibition at 20 g/ha [8, 11] | inhibition at 40 g/ha (total evaluation; 648 h, Frigate 0.2 % by volume, read-out: Growth Inhibition (%) TE)
45%: Growth Inhibition (%) of Crabgrass [1, 9] | inhibition at 30 g/ha ([3]; Frigate: No addition)
0%: inhibition at 5 g/ha ([1]; Frigate: No addition, Compound A 5 g/ha)
98%: inhibition at 40 g/ha ([1]; Frigate 0.5 % by volume) | inhibition at 20 g/ha ([2]; Digitaria, 552 h, Compound A 20 g/ha, read-out: Growth Inhibition (%) of Crabgrass) | inhibition at 40 g/ha ([2]; Digitaria, 552 h, Compound A 40 g/ha, read-out: Growth Inhibition (%) of Crabgrass)
5%: Growth Inhibition (%) of Crabgrass ([1]; Frigate: No addition, Compound A 10 g/ha)
80%: inhibition at 30 g/ha ([3]; Frigate 0.1 % by volume) | inhibition at 40 g/ha ([4]; Frigate: No addition) | inhibition at 30 g/ha ([6]; Xanthium strumarium, 648 h, Frigate 0.1 % by volume, Compound A 30 g/ha, read-out: Growth Inhibition (%) XS) | inhibition at 40 g/ha ([6]; Xanthium strumarium, 648 h, Frigate 0.1 % by volume, Compound A 40 g/ha, read-out: Growth Inhibition (%) XS) | inhibition at 20 g/ha ([6]; Xanthium strumarium, 648 h, Frigate 0.2 % by volume, Compound A 20 g/ha, read-out: Growth Inhibition (%) XS) | inhibition at 50 g/ha ([7]; Setaria viridis, 648 h, Frigate: No addition, Compound A 50 g/ha, read-out: Growth Inhibition (%) SV) | inhibition at 30 g/ha (total evaluation; 648 h, Frigate 0.2 % by volume, Compound A 30 g/ha, read-out: Growth Inhibition (%) TE)
60%: inhibition at 20 g/ha ([7]; Setaria viridis, 648 h, Frigate 0.2 % by volume, Compound A 20 g/ha, read-out: Growth Inhibition (%) SV) | Growth Inhibition (%) TE (total evaluation; [12])
90%: inhibition at 20 g/ha ([1]; Frigate 0.125 % by volume) | Growth Inhibition (%) of Crabgrass ([2]; Compound A 20 g/ha) | inhibition at 40 g/ha ([3]; Frigate 0.1 % by volume) | inhibition at 40 g/ha ([3]; Frigate 0.2 % by volume) | inhibition at 40 g/ha ([4]; Frigate 0.2 % by volume) | inhibition at 40 g/ha ([8]; Frigate 0.1 % by volume) | inhibition at 30 g/ha ([8]; Frigate 0.2 % by volume) | inhibition at 30 g/ha ([8]; Frigate: No addition) | inhibition at 40 g/ha (total evaluation; 648 h, Frigate 0.1 % by volume, read-out: Growth Inhibition (%) TE)
70%: inhibition at 20 g/ha ([1]; Frigate: No addition) | inhibition at 10 g/ha ([2]; Digitaria, 552 h, Compound A 10 g/ha, read-out: Growth Inhibition (%) of Crabgrass) | inhibition at 30 g/ha ([5]; Frigate 0.1 % by volume) | inhibition at 40 g/ha ([5]; Frigate 0.1 % by volume) | inhibition at 30 g/ha ([5]; Frigate 0.2 % by volume) | inhibition at 50 g/ha [5, 10] | inhibition at 50 g/ha ([6]; Xanthium strumarium, 648 h, Frigate: No addition, Compound A 50 g/ha, read-out: Growth Inhibition (%) XS) | inhibition at 40 g/ha ([7]; Setaria viridis, 648 h, Frigate 0.1 % by volume, read-out: Growth Inhibition (%) SV) | inhibition at 40 g/ha ([7]; Setaria viridis, 648 h, Frigate: No addition, read-out: Growth Inhibition (%) SV) | inhibition at 40 g/ha (total evaluation; 648 h, Frigate: No addition, read-out: Growth Inhibition (%) TE)
40%: inhibition at 5 g/ha [1, 9] | Growth Inhibition (%) SV ([7]; Frigate 0.1 % by volume, Compound A 30 g/ha)
50%: inhibition at 5 g/ha ([1]; Frigate 0.25 % by volume, Compound A 5 g/ha) | inhibition at 30 g/ha (total evaluation; 648 h, Frigate: No addition, Compound A 30 g/ha, read-out: Growth Inhibition (%) TE)
25% and 50%: Growth Inhibition (%) XS [6, 12]
30%: inhibition at 30 g/ha ([5]; Frigate: No addition)
65%: inhibition at 40 g/ha ([3]; Frigate: No addition) | inhibition at 50 g/ha [3, 10] | Growth Inhibition (%) XS ([6]; Frigate 0.2 % by volume, Compound A 40 g/ha) | inhibition at 30 g/ha ([7]; Setaria viridis, 648 h, Frigate 0.2 % by volume, Compound A 30 g/ha, read-out: Growth Inhibition (%) SV) | inhibition at 30 g/ha ([7]; Setaria viridis, 648 h, Frigate: No addition, Compound A 30 g/ha, read-out: Growth Inhibition (%) SV) | inhibition at 20 g/ha (total evaluation; 648 h, Frigate 0.2 % by volume, Compound A 20 g/ha, read-out: Growth Inhibition (%) TE)
